Reference: patent US11358954B2, “PPAR agonists, compounds, pharmaceutical compositions, and methods of use thereof” (Mitobridge, Inc., priority 2016, dated 2022)

Assays:
[1] = Pharmacokinetic screening in male CD-1 mice; assay type: in vivo; details: mouse; for C0: read-out: IV PK C0; for Vd: read-out: IV PK Vss; for bioavailability: read-out: Oral PK % F; for Cmax: read-out: Oral PK Cmax; for Tmax: read-out: Oral PK T max
Experimental: (§1) In this example, the PK profile of several PPARδ agonists disclosed herein in male CD-1 mice or Wistar rats was determined by the methods disclosed in Boxenbaum H. (1980) Interspecies variation in liver weight, hepatic blood flow and antipyrine intrinsic clearance in extrapolation of Benzodiazepines and phenytoin. J. Pharmacokinet Biopharm 8: 165-176. Similar methods can be used to analyze other compounds provided herein.
(§2) All compounds were separately administered to CD-1 mice at 1 mg/kg iv or 3 mg/kg po. The compounds were separately administered to male Wistar rats 1 mg/kg iv or 3 mg/kg po. The species M refers to mouse and R reports to rat in the following table. NA means not available.

[2] = Pharmacokinetic screening in male Wistar rats; details: in vivo, rat; for C0: read-out: IV PK C0; for clearance: read-out: IV PK Cl; for Vd: read-out: IV PK Vss; for bioavailability: 3.0 mpk po vs 1.0 mpk iv, read-out: Oral PK % F; for Cmax: read-out: Oral PK Cmax; for Tmax: read-out: Oral PK T max
Experimental: as §1, §2

hERG = target: T1, hERG (Homo sapiens, UniProt Q12809); test: hERG inhibition screen (patch clamp, peak hERG tail current); assay type: cell-based; details: for inhibition at 10 µM: human
T1 construct: expressed in transfected cells
T1 sequence (Q12809 whole entry): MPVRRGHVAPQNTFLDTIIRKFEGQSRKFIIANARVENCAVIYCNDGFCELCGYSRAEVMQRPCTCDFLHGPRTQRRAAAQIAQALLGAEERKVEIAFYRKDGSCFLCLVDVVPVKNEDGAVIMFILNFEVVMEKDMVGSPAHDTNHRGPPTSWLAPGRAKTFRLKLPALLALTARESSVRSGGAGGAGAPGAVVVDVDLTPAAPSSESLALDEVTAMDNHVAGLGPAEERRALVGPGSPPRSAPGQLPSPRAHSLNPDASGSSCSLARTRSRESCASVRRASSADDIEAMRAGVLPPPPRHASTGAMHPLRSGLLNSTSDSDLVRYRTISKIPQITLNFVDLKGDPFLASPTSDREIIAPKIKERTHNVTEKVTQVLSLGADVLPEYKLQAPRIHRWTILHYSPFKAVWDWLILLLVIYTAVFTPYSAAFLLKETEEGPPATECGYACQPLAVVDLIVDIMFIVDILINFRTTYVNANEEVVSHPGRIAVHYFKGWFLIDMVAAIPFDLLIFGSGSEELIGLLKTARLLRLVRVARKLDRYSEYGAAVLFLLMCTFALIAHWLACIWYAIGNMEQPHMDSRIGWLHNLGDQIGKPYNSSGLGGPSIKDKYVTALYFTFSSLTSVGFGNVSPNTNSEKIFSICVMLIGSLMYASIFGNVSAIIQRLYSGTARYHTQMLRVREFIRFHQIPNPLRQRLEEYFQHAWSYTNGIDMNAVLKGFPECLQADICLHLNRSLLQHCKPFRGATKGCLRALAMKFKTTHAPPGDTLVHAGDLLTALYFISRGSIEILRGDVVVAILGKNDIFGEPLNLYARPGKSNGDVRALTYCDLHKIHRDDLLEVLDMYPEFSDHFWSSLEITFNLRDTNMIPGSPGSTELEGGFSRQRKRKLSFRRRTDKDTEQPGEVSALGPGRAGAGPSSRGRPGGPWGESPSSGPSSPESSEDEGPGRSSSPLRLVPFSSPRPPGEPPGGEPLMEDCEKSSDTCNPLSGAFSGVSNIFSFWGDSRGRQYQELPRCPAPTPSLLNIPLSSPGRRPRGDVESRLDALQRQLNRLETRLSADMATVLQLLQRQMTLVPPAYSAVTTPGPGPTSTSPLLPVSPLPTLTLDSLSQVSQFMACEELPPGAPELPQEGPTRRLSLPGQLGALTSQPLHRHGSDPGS
Experimental: Cells were cultured in DMEM/F-12 medium supplemented with 10% fetal bovine serum and 400 μg/mL Geneticin. Cells were grown in 75 cm tissue culture flasks maintained at 37° C. with 5% CO2 and passaged every 3 days using 0.05/0.02% Trypsin/EDTA (confluency of <80%). For the purpose of electrophysiology, cells were seeded in 25 cm2 tissue culture flasks. Three day old cells were harvested using Trypsin/EDTA (0.025/0.01%) as detaching agent and resuspended in external recording solution.
Preweighed quantity of test item was dissolved in tissue culture grade DMSO to prepare a primary stock solution. The strength of the primary stock was 1000× of the intended highest test concentration. Subsequently, working stock solutions of appropriate strengths was prepared by dilution of primary stock with DMSO. The stock solutions were aliquoted into eppendorff tubes and stored at −20° C. freezer (<0° C.) until use. On the day of experiment, aliquots were thawed and used for preparing the assay solution (test solution).
Test solutions were prepared fresh by adding 4 μL of stock solution in to 3996 μL external recording solution such that the final DMSO concentration in the assay solution was 0.1% v/v. Upon addition, solution was inspected carefully against light by naked eye for any indications of precipitation.
Electrophysiological Procedures: • Electrophysiology Setup: Instrument: Port-A-Patch • Patch clamp type: Semiautomatic • Manufacturer: Nanion technologies, GmBH Germany • Electrophysiology chips: Glasscoated NPC-1 chips • Recording Condition: Room temperature • Compound Addition Protocol: Manual addition—20 μL of solution was added on one side of the chip, followed by withdrawal of 20 μL from the other side. This way of addition and withdrawal was repeated at least 4-5 times to ensure actual test concentration is reached. • Test Concentration Exposure Period: Cells were exposed to each test concentration for 3 min or till a steady state block was reached • Voltage Protocol: −40 mV subtraction pulse for 0.5 sec; +40 mV activation pre-pulse for 2 sec; −40 mV test pulse for 2 sec and −80 mV holding potential repeated at every 10 sec • Assay end point: Peak hERG tail current recorded when the voltage was reduced from +40 mV to −40 mV.
The steady state current after the application of 0.1% DMSO was considered as baseline (control current). Steady state current obtained at the end of each test concentration addition was used to calculate the % hERG current inhibited at each concentration. Any rundown due to vehicle addition was corrected to calculate % hERG current inhibition. Each cell acted as its own control. Average current of last 3-5 sweeps of acceptable quality was considered for calculation of % inhibition. Sweeps with artifacts and noise were omitted while calculation.

Human PPARδ = target: T2, Human PPARδ (Homo sapiens, UniProt Q03181); test: PPARδ activity screen (GAL4-PPARδ LBD luciferase transactivation in CV-1 cells); assay type: cell-based; details: 24 h compound treatment, luciferase reporter
T2 construct: (PPARδ amino acid 128 to C-terminus); expressed in transfected cells; host or cells: CV-1 cells
T2 sequence (Q03181 128-441 limits assumed): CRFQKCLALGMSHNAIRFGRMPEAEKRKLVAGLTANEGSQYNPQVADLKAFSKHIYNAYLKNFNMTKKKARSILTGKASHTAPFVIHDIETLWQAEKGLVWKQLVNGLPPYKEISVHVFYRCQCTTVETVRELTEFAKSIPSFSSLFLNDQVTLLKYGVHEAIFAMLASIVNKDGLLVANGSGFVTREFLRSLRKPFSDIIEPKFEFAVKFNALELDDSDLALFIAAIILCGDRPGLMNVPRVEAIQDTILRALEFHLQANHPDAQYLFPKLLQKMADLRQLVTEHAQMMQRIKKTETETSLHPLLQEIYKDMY
Experimental: CV-1 cells were grown in DMEM+10% charcoal stripped FCS. Cells were seeded into 384-well plates the day before transfection to give a confluency of 50-80% at transfection. A total of […] containing 0.64 micrograms pCMX-PPARDelta LBD, 0.1 micrograms pCMXβGal, 0.08 micrograms pGLMH2004 reporter and 0.02 micrograms pCMX empty vector was transfected per well using FuGene transfection reagent according to the manufacturer's instructions (Roche). Cells were allowed to express protein for 48 h followed by addition of compound.
Human PPARδ was used to PCR amplify the PPARδ LBD. […] Ensuing fusions were verified by sequencing.
All compounds were dissolved in DMSO and diluted 1:1000 upon addition to the cells. Compounds were tested in quadruple in concentrations ranging from 0.001 to 100 μM. Cells were treated with compound for 24 h followed by luciferase assay. […]
Medium including test compound was aspirated and washed with PBS. […] Light emission was quantified by counting on a Perkin Elmer Envision reader. […] Beta-galactosidase assays were performed in the microwell plates using a kit from Promega and read in a Perkin Elmer Envision reader. […]
The activity of a compound is calculated as fold induction compared to an untreated sample. […] EC50 values were calculated via non-linear regression using GraphPad PRISM (GraphPad Software, San Diego, Calif.).

[3] = male, CD-1, in vivo, 1 mg/kg, 1.0 mpk iv, read-out: IV PK AUC (0-inf)
[4] = male, CD-1, in vivo, 1 mg/kg, 1.0 mpk iv
[5] = male, CD-1, in vivo, 3 mg/kg, 3.0 mpk po vs 1.0 mpk iv
[6] = male, CD-1, in vivo, 3 mg/kg, 3.0 mpk po, read-out: Oral PK AUC (0-inf)
[7] = male, CD-1, in vivo, 3 mg/kg, 3.0 mpk po
[8] = male, CD-1, in vivo, 3 mg/kg, 3.0 mpk po, read-out: Oral PK T½ (converted)
[9] = 1 mg/kg, 1.0 mpk iv, read-out: IV PK AUC (0-inf)
[10] = 1 mg/kg, 1.0 mpk iv, read-out: IV PK Beta T½ (converted)
[11] = 3 mg/kg, 3.0 mpk po, read-out: Oral PK AUC (0-inf)
[12] = male, CD-1, in vivo, 1 mg/kg, 1.0 mpk iv, read-out: IV PK Beta T½ (converted)
[13] = 3 mg/kg, 3.0 mpk po, read-out: Oral PK T½ (converted)

Row | Compound | AUC(0-inf) [1, 3] [ng·h/mL] | C0 [1, 4] [ng/mL] | Vd [1, 4] [L/kg] | bioavailability [1, 5] [%] | AUC(0-inf) [1, 6] [ng·h/mL] | Cmax [1, 7] [ng/mL] | Tmax [1, 7] [h] | half-life [1, 8] [h] | IV PK Cl ([1]; 1.0 mpk iv) [mL/min/kg] | AUC(0-inf) [2, 9] [ng·h/mL] | C0 ([2]; 1 mg/kg, 1.0 mpk iv) [ng/mL] | clearance ([2]; 1 mg/kg, 1.0 mpk iv) [mL/min/kg] | Vd ([2]; 1 mg/kg, 1.0 mpk iv) [L/kg] | bioavailability ([2]; 3 mg/kg) [%] | AUC(0-inf) [2, 11] [ng·h/mL] | Cmax ([2]; 3 mg/kg, 3.0 mpk po) [ng/mL] | Tmax ([2]; 3 mg/kg, 3.0 mpk po) [h] | inhibition at 10 µM (hERG) [%] | half-life [1, 12] [h] | hERG % Inhibition at 10 μM (hERG) [%] | further results
1 | C[C@H](CCCOc1ccccc1Cn1c(C(F)(F)F)cnc1-c1ccc(C(F)(F)F)cc1)CC(=O)O [Compound 2a, (3R)-3-methyl-6-(2-((5-(trifluoromethyl)-2-(4-(trifluoromethyl)phenyl)-1H-imidazol-1-yl)methyl)phenoxy)hexanoic acid] | 3310 | 740 | 1.9 | 70 | 6960 | 1260 | 0.3 | 3.8 | 5.0 | 5040 | 1530 | 3.8 | 1.7 | 100 | 16100 | 1200 | 2.8 | 6 | – | – | IV PK Beta T½ ([1]; 1.0 mpk iv): 5.8 h; half-life [2, 10]: 7.1 h
2 | C[C@H](CCCOc1ccccc1Cn1c(Cl)cnc1-c1ccc(C(F)(F)F)cc1)CC(=O)O [Compound 2b, (R)-6-(2-((5-chloro-2-(4-(trifluoromethyl)phenyl)-1H-imidazol-1-yl)methyl)phenoxy)-3-methylhexanoic acid] | 1060 | 810 | 3.1 | 100 | 3880 | 2950 | 0.5 | 4.3 | 16 | 2970 | 2120 | 5.8 | 1.2 | 87 | 7790 | 2380 | 0.3 | – | 3.5 | 3.00 | half-life [2, 10]: 4.8 h; half-life [2, 13]: 4.1 h
3 | C[C@H](CCCOc1ccccc1Cn1c(C#N)cnc1-c1ccc(C(F)(F)F)cc1)CC(=O)O [Compound 2c, (3R)-6-(2-((5-cyano-2-(4-(trifluoromethyl)phenyl)-1H-imidazol-1-yl)methyl)phenoxy)-3-methylhexanoic acid] | – | – | – | – | – | – | – | – | – | – | – | – | – | – | – | – | – | – | – | 2.50 | –
4 | C[C@H](CCCOc1ccccc1Cn1c(C(F)(F)F)cnc1-c1ccc(Cl)cc1)CC(=O)O [Compound 2d, (3R)-6-(2-((2-(4-chlorophenyl)-5-(trifluoromethyl)-1H-imidazol-1-yl)methyl)phenoxy)-3-methylhexanoic acid] | 5620 | 1720 | 1.4 | 61 | 5620 | 2830 | 0.3 | 10 | – | – | – | – | – | – | – | – | – | – | 6.3 | 5.00 | clearance ([1]; male, CD-1, in vivo, 1 mg/kg, 1.0 mpk iv, read-out: IV PK Cl): 5.4 mL/min/kg
5 | C[C@H](CCCOc1ccccc1Cn1c(C(F)(F)F)cnc1-c1ccc(F)cc1)CC(=O)O [Compound 2e, (3R)-6-(2-((2-(4-fluorophenyl)-5-(trifluoromethyl)-1H-imidazol-1-yl)methyl)phenoxy)-3-methylhexanoic acid] | – | – | – | – | – | – | – | – | – | – | – | – | – | – | – | – | – | – | – | – | EC50 (Human PPARδ): 25 nM
6 | C[C@H](CCCOc1ccccc1Cn1c(C(F)(F)F)cnc1-c1ccc(C#N)cc1)CC(=O)O [Compound 2f, (R)-6-(2-((2-(4-cyanophenyl)-5-(trifluoromethyl)-1H-imidazol-1-yl)methyl)phenoxy)-3-methylhexanoic acid] | 6730 | 2450 | 0.6 | – | 14700 | 4240 | 0.3 | 4.9 | 2.5 | 4090 | 1820 | 3 | 3.9 | 100 | 14900 | 4330 | 0.3 | 3.5 | 4.1 | – | Oral PK % F ([1]; 3.0 mpk po vs 1.0 mpk iv): 73%; half-life [2, 13]: 10.3 h
7 | C[C@H](CCCOc1ccccc1Cn1c(C(F)(F)F)cnc1-c1ccc(OC(F)(F)F)cc1)CC(=O)O [Compound 2g, (3R)-3-methyl-6-(2-((2-(4-(trifluoromethoxy)phenyl)-5-(trifluoromethyl)-1H-imidazol-1-yl)methyl)phenoxy)hexanoic acid] | – | – | – | – | – | – | – | – | – | – | – | – | – | – | – | – | – | – | – | 2.00 | –
8 | O=C(O)CCCCCOc1ccccc1Cn1c(C(F)(F)F)cnc1-c1ccc(-c2ccco2)cc1 [Compound 2h, 6-(2-((2-(4-(furan-2-yl)phenyl)-5-(trifluoromethyl)-1H-imidazol-1-yl)methyl)phenoxy)hexanoic acid] | – | – | – | – | – | – | – | – | – | – | – | – | – | – | – | – | – | 7 | – | – | EC50 (Human PPARδ): 2 nM
9 | C[C@H](CCCOc1ccccc1Cn1c(C(F)(F)F)cnc1-c1ccc(-c2ccco2)cc1)CC(=O)O [Compound 2i, (3R)-6-(2-((2-(4-(furan-2-yl)phenyl)-5-(trifluoromethyl)-1H-imidazol-1-yl)methyl)phenoxy)-3-methylhexanoic acid] | – | – | – | – | – | – | – | – | – | – | – | – | – | – | – | – | – | – | – | 2.30 | –
